Laboratory results published in patent US20230278972A1, “SUBSTITUTED HALOALKYL SULFONANILIDE HERBICIDES” (FMC Corporation, priority 2020, published 2023).

Legend:
Assay type in all cases: in vivo
[1] = test system: barnyardgrass (Echinochloa crus-galli); test: Test A preemergence, barnyardgrass; conditions: Preemergence; for Barnyardgrass plant response rating: visual injury on 0 to 100 scale (0 no effect, 100 complete control), approximately 10 days; for Plant response rating, Barnyardgrass: 0 to 100 scale (0 no effect, 100 complete control)
How it was run: (§1)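 Greenhouse pot test in a loam–sand blend; compounds delivered in a non-phytotoxic solvent carrying a surfactant, applied either as a directed spray to soil at seeding or over seedlings 2 to 10 cm high with one to two leaves.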

[2] = test system: galium (catchweed bedstraw, Galium aparine); test: Test A postemergence, galium; conditions: Postemergence
How it was run: (§2)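 Formulated with a surfactant in a non-phytotoxic solvent, compounds are applied to loam–sand pots, either to bare soil immediately after seeding (preemergence) or to seedlings of 2 to 10 cm bearing one to two leaves (postemergence).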

[3] = test system: Ryegrass, Italian (Italian ryegrass, Lolium multiflorum); test: Test A preemergence, Ryegrass, Italian; conditions: Preemergence; for Ryegrass, Italian plant response rating: visual injury on 0 to 100 scale (0 no effect, 100 complete control), approximately 10 days; for Plant response rating, Ryegrass, Italian: 0 to 100 scale (0 no effect, 100 complete control)
How it was run: as §1

[4] = test system: pigweed (Amaranthus retroflexus); test: Test A preemergence, pigweed; conditions: for Pigweed plant response rating: visual injury on 0 to 100 scale (0 no effect, 100 complete control), approximately 10 days; for Plant response rating, Pigweed: 0 to 100 scale (0 no effect, 100 complete control)
How it was run: as §2

[5] = test system: pigweed (Amaranthus retroflexus); test: Test A postemergence, pigweed; conditions: Postemergence
How it was run: as §1

[6] = test system: barnyardgrass (Echinochloa crus-galli); test: Test A postemergence, barnyardgrass; conditions: Postemergence
How it was run: as §2

[7] = test system: wheat (Triticum aestivum); test: Test A postemergence, wheat; conditions: Postemergence
How it was run: as §2

corn (Zea mays) = test: Test A postemergence, corn; conditions: Postemergence
How it was run: as §1

kochia (Bassia scoparia) [8] = test: Test A preemergence, kochia; conditions: Preemergence; for Kochia plant response rating: visual injury on 0 to 100 scale (0 no effect, 100 complete control), approximately 10 days; for Plant response rating, Kochia: 0 to 100 scale (0 no effect, 100 complete control)
How it was run: as §1

[9] = test system: blackgrass (Alopecurus myosuroides); test: Test A postemergence, blackgrass; conditions: Postemergence
How it was run: as §1

kochia (Bassia scoparia) [10] = test: Test A postemergence, kochia; conditions: Postemergence
How it was run: as §1

[11] = test system: ragweed (common ragweed, Ambrosia artemisiifolia); test: Test A preemergence, ragweed; conditions: Preemergence; for Ragweed plant response rating: visual injury on 0 to 100 scale (0 no effect, 100 complete control), approximately 10 days; for Plant response rating, Ragweed: 0 to 100 scale (0 no effect, 100 complete control)
How it was run: as §1

[12] = test system: Ryegrass, Italian (Italian ryegrass, Lolium multiflorum); test: Test A postemergence, Ryegrass, Italian; conditions: Postemergence
How it was run: as §1

[13] = test system: Foxtail, Giant (giant foxtail, Setaria faberi); test: Test A preemergence, Foxtail, Giant; conditions: Preemergence; for Foxtail, Giant plant response rating: visual injury on 0 to 100 scale (0 no effect, 100 complete control), approximately 10 days; for Plant response rating, Foxtail, Giant: 0 to 100 scale (0 no effect, 100 complete control)
How it was run: as §1

[14] = test system: Foxtail, Giant (giant foxtail, Setaria faberi); test: Test A postemergence, Foxtail, Giant; conditions: Postemergence
How it was run: as §1

[15] = test system: ragweed (common ragweed, Ambrosia artemisiifolia); test: Test A postemergence, ragweed; conditions: Postemergence
How it was run: as §1

[16] = 125 g ai/ha, visual injury approx. 10 days, 0 to 100 scale (0 no effect, 100 complete control)
[17] = 500 g ai/ha, visual injury vs untreated controls after approx. 10 days, 0 to 100 scale (0 no effect, 100 complete control)
[18] = 125 g ai/ha, visual injury, approx. 10 days
[19] = 125 g ai/ha, 0 to 100 scale (0 no effect, 100 complete control)
[20] = 500 g ai/ha, visual injury approx. 10 days, 0 to 100 scale (0 no effect, 100 complete control)
[21] = 31 g ai/ha, visual injury, approx. 10 days
[22] = 31 g ai/ha, visual injury on 0 to 100 scale (0 no effect, 100 complete control), approx. 10 days

SMILES: CCn1nc(Cl)cc(-c2cc(N(S(C)(=O)=O)S(=O)(=O)C(F)(F)F)c(C)cc2C)c1=O [Compound 45]
- Barnyardgrass plant response rating ([1]; 125 g ai/ha): 90
- Plant response rating, Barnyardgrass ([1]; 500 g ai/ha): 100
- Plant response rating, Galium [2, 16]: 10
- Galium plant response rating [2, 17]: 40
- Ryegrass, Italian plant response rating ([3]; 125 g ai/ha): 80
- Plant response rating, Ryegrass, Italian ([3]; 500 g ai/ha): 100
- Pigweed plant response rating ([4]; 125 g ai/ha): 60
- Plant response rating, Pigweed ([4]; 500 g ai/ha): 90
- Plant response rating, Pigweed [5, 16]: 30
- Pigweed plant response rating [5, 17]: 70
- Plant response rating, Barnyardgrass [6, 16]: 20
- Barnyardgrass plant response rating [6, 17]: 70
- Plant response rating, Wheat [7, 16]: 40
- Wheat plant response rating [7, 17]: 70
- Plant response rating, Corn (corn (Zea mays); [16]): 10
- Corn plant response rating (corn (Zea mays); [17]): 30
- Kochia plant response rating (kochia (Bassia scoparia) [8]; 125 g ai/ha): 70
- Plant response rating, Kochia (kochia (Bassia scoparia) [8]; 500 g ai/ha): 100
- Plant response rating, Blackgrass [9, 16]: 0
- Blackgrass plant response rating [9, 17]: 60
- Plant response rating, Kochia (kochia (Bassia scoparia) [10]; [16]): 10
- Kochia plant response rating (kochia (Bassia scoparia) [10]; [17]): 50
- Ragweed plant response rating ([11]; 125 g ai/ha): 60
- Plant response rating, Ragweed ([11]; 500 g ai/ha): 80
- Plant response rating, Ryegrass, Italian [12, 16]: 50
- Ryegrass, Italian plant response rating [12, 17]: 90
- Foxtail, Giant plant response rating ([13]; 125 g ai/ha): 100
- Plant response rating, Foxtail, Giant ([13]; 500 g ai/ha): 100
- Plant response rating, Foxtail, Giant [14, 16]: 0
- Foxtail, Giant plant response rating [14, 17]: 60
- Plant response rating, Ragweed [15, 16]: 20
- Ragweed plant response rating [15, 17]: 70

SMILES: Cc1cc(C)c(N2CCC3(CCCC3)C2=O)cc1NS(=O)(=O)C(F)(F)F [Compound 270]
- Plant response rating, Barnyardgrass [1, 18]: 90
- Barnyardgrass plant response rating ([1]; 500 g ai/ha): 90
- Plant response rating, Galium [2, 19]: 80
- Plant response rating, Galium [2, 20]: 90
- Plant response rating, Ryegrass, Italian [3, 18]: 100
- Ryegrass, Italian plant response rating ([3]; 500 g ai/ha): 100
- Plant response rating, Pigweed [4, 18]: 70
- Pigweed plant response rating ([4]; 500 g ai/ha): 100
- Plant response rating, Pigweed [5, 19]: 60
- Plant response rating, Pigweed [5, 20]: 90
- Plant response rating, Barnyardgrass [6, 19]: 0
- Plant response rating, Barnyardgrass [6, 20]: 70
- Plant response rating, Wheat [7, 19]: 40
- Plant response rating, Wheat [7, 20]: 70
- Plant response rating, Corn (corn (Zea mays); [19]): 0
- Plant response rating, Corn (corn (Zea mays); [20]): 50
- Plant response rating, Kochia (kochia (Bassia scoparia) [8]; [18]): 0
- Kochia plant response rating (kochia (Bassia scoparia) [8]; 500 g ai/ha): 0
- Plant response rating, Blackgrass [9, 19]: 20
- Plant response rating, Blackgrass [9, 20]: 70
- Plant response rating, Kochia (kochia (Bassia scoparia) [10]; [19]): 10
- Plant response rating, Kochia (kochia (Bassia scoparia) [10]; [20]): 50
- Plant response rating, Ragweed [11, 18]: 0
- Ragweed plant response rating ([11]; 500 g ai/ha): 80
- Plant response rating, Ryegrass, Italian [12, 19]: 0
- Plant response rating, Ryegrass, Italian [12, 20]: 70
- Plant response rating, Foxtail, Giant [13, 18]: 100
- Foxtail, Giant plant response rating ([13]; 500 g ai/ha): 100
- Plant response rating, Foxtail, Giant [14, 19]: 0
- Plant response rating, Foxtail, Giant [14, 20]: 20
- Plant response rating, Ragweed [15, 19]: 30
- Plant response rating, Ragweed [15, 20]: 60

SMILES: Cc1cc(C)c(N(S(=O)(=O)C(F)(F)F)S(=O)(=O)C(F)(F)F)cc1N1CC2(CCOCC2)OC1=O [Compound 157]
- Plant response rating, Barnyardgrass [1, 21]: 30
- Barnyardgrass plant response rating ([1]; 125 g ai/ha): 100
- Plant response rating, Galium [2, 22]: 90
- Plant response rating, Galium [2, 19]: 100
- Plant response rating, Ryegrass, Italian [3, 21]: 40
- Ryegrass, Italian plant response rating ([3]; 125 g ai/ha): 60
- Plant response rating, Pigweed [4, 21]: 100
- Pigweed plant response rating ([4]; 125 g ai/ha): 100
- Plant response rating, Pigweed [5, 22]: 90
- Plant response rating, Pigweed [5, 19]: 100
- Plant response rating, Barnyardgrass [6, 22]: 20
- Plant response rating, Barnyardgrass [6, 19]: 60
- Plant response rating, Wheat [7, 22]: 0
- Plant response rating, Wheat [7, 19]: 0
- Plant response rating, Corn (corn (Zea mays); [22]): 20
- Plant response rating, Corn (corn (Zea mays); [19]): 20
- Plant response rating, Kochia (kochia (Bassia scoparia) [8]; [21]): 50
- Kochia plant response rating (kochia (Bassia scoparia) [8]; 125 g ai/ha): 90
- Plant response rating, Blackgrass [9, 22]: 30
- Plant response rating, Blackgrass [9, 19]: 30
- Plant response rating, Kochia (kochia (Bassia scoparia) [10]; [22]): 10
- Plant response rating, Kochia (kochia (Bassia scoparia) [10]; [19]): 70
- Plant response rating, Ragweed [11, 21]: 40
- Ragweed plant response rating ([11]; 125 g ai/ha): 90
- Plant response rating, Ryegrass, Italian [12, 22]: 0
- Plant response rating, Ryegrass, Italian [12, 19]: 30
- Plant response rating, Foxtail, Giant [13, 21]: 80
- Foxtail, Giant plant response rating ([13]; 125 g ai/ha): 100
- Plant response rating, Foxtail, Giant [14, 22]: 10
- Plant response rating, Foxtail, Giant [14, 19]: 30
- Plant response rating, Ragweed [15, 22]: 70
- Plant response rating, Ragweed [15, 19]: 90
